PMC8451604, “Rational formulation engineering of fraxinellone utilizing 6-O-α-D-maltosyl-β-cyclodextrin for enhanced oral bioavailability and hepatic fibrosis therapy” (Drug Delivery, 2021)
Converted amounts (≈) assume the structure as drawn.

Key:
Caco-2 cells = test: Cytotoxicity in Caco-2 cells (MTT assay); type: cell-based; conditions: Caco-2, concentration increased to 200 μg/mL
Procedure: Cytotoxicity effects and cellular uptake ability of Frax, CDs, and CDs-Frax complexes were examined using Caco-2 cells. […] Each CD solution was also used to determine whether the cell toxicity was caused by Frax or CDs. For cellular uptake studies, Caco-2 cells were treated with Frax and CDs-Frax (100 μg/mL) for 0.5, 1, and 2 h, respectively. For P-gp inhibition evaluation, the cells were pretreated with verapamil at a concentration of 100 μg/mL and further treated with each drug or formulation. Thereafter, the cells were washed and replenished with fresh PBS (300 μL). The cell lysate was prepared by three cycles of freeze-thaw. Protein concentration in the samples was quantified by the BCA kit while the Frax concentration was determined by HPLC.

[1] = Phase solubility study of Frax with CDs; type: physicochemical; conditions: 37 °C; for solubility at 72 h: aqueous with cosolvent or surfactant or cyclodextrin, thermodynamic from solid; for Frax solubility increase: vs water
Procedure: Frax was excessively mixed with increasing molar concentrations (0–350.00 mM) of each CD aqueous solution. […] The samples were subjected to HPLC analysis after centrifugation (4024.8 g, 10 min). Phase solubility profiles were plotted by monitoring Frax concentration as a function of the molar concentration of each CD. Based on the phase solubility curves, we calculated the apparent stability constants (Kc, L/mol) according to Equation (1): (1) Kc=Slope/S0(1−Slope) where S0 is the water solubility of Frax at equilibrium.

[2] = set-up: method as in Ruan et al., 2006; conditions: ref Ruan et al., 2006; cited from earlier work
[3] = Blood biochemical assay (hematological parameters); type: in vivo, Kunming male mice; conditions: mice, 7 weeks; for PLT (platelet) / WBC (white blood cell): in 10^9/L (unit assumed); for RBC (red blood cell): in 10^12/L (unit assumed); for HCT (haematocrit) / RDW-CV (red cell volume distribution width): in % (unit assumed); for MCV (mean cell volume) / MPV (meanplateletvolume) / RDW-SD: in fL (unit assumed); for HGB (hemoglobin): in g/L (unit assumed); for MCH (mean corpuscular hemoglobin): in pg (unit assumed)
Procedure: The Kunming male mice (weight of 28–30 g) were divided into 10 groups (n = 10): normal group, Frax or G2-β-CD-Frax treatment groups with a Frax dose of 5, 10, and 20 mg/kg, respectively, G2-β-CD solution treatment (equivalent to 20 mg/kg of G2-β-CD-Frax) group. Drug treatment continued every day for 7 weeks. One day after the last administration, blood and major tissues (heart, liver, spleen, lung, and kidney) were obtained from the blank group and drug-treated groups (20 mg/kg) for histological examination. The whole blood was directly analyzed using an automatic blood cell analyzer to obtain hematological parameters. The collected tissues were subjected to histological examination.

[4] = In vitro drug release by dialysis method; type: physicochemical; conditions: within 6 h, pH 1.2, 6.8 and 7.4 media, 37 °C
Procedure: In vitro drug release performance was studied by a dialysis method in phosphate buffer (pH 6.8 and 7.4) and 0.1 M HCl (pH 1.2) at 37 °C. Briefly, a certain volume of Frax suspension, SBE-β-CD-Frax, G2-β-CD-Frax, and HP-β-CD-Frax dispersion solution were enclosed in 1500 Da dialysis bags, respectively. The dialysis bag was then transferred and immersed into the release medium under gentle shaking. After 0.5, 1, 1.5, 2, 2.5, 3.5, 4, and 6 h, 1 mL of the release media was aspirated and supplemented with 1 mL of fresh media. The Frax concentration in the samples was analyzed by HPLC. The cumulative drug release (%) was calculated with the following Equation (2) (Chuang et al., [2018]): (2) Drug release (%)=Ve∑1n−1Ci+V0Cn/mFrax where V0 (mL) is the release media volume, Cn (μg/mL) is the drug concentration in the sample, Ve (mL) is the replaced medium volume, and mFrax (mg) is the amount of drug in the sample.

[5] = system: CCl4-induced liver fibrosis mice; test: CCl4-induced liver fibrosis, therapeutic efficacy; type: in vivo, Kunming male mice
Procedure: The Kunming male mice (weight of 28–30 g) were divided into 10 groups (n = 10): normal group, CCl4-induced liver fibrosis group, CCl4 induction treated with Frax or G2-β-CD-Frax treatment groups (5, 10, and 20 mg/kg, respectively), CCl4 induction with colchicine (0.2 mg/kg) treatment group, CCl4 induction with G2-β-CD solution treatment (equivalent to 20 mg/kg of G2-β-CD-Frax) group. The mice in the normal group were treated with olive oil only, while the other groups were intraperitoneally injected with 10% CCl4-olive oil every other week for 10 weeks (5 mL/kg for the first dose and 3 mL/kg for the second starting dose). Drug treatment began on the fourth week of modeling and continued every day for 7 weeks. One day after the last administration, blood in all the groups was immediately harvested for assays of AST and ALT. […] were then sacrificed and livers were collected and divided into two parts for histological examination and Hydroxyproline (HYP) assay, respectively.

[6] = Octanol/water partition coefficient (Log P) measurement; type: physicochemical; conditions: octanol/PBS (mutually saturated, equal volumes); pH 1.2, 4.5 and 6.8, 37 °C
Procedure: The mixtures were placed in an air bath shaking at 100 rpm at 37 °C for 24 h. The samples were then centrifuged (12,000 rpm, 10 min) for oil/water phase separation. The drug concentration in these two phases was analyzed by HPLC, respectively.

[7] = oral 5 mg/kg daily for 7 weeks, vs CCl4 group

- solubility at 72 h ([1]; 8.82 mM G2-β-CD aqueous solution, with 8.82 mM G2-β-CD): 430 µg/mL (≈ 1850 µM)
- solubility at 72 h ([1]; 8.82 mM HP-β-CD aqueous solution, with 8.82 mM HP-β-CD): 330 µg/mL (≈ 1420 µM)
- solubility at 72 h ([1]; 8.82 mM SBE-β-CD aqueous solution, with 8.82 mM SBE-β-CD): 600 µg/mL (≈ 2580 µM)
- solubility at 72 h ([1]; 8.82 mM β-CD aqueous solution, with 8.82 mM β-CD): 310 µg/mL (≈ 1330 µM)
- solubility at 72 h ([1]; 350 mM G2-β-CD aqueous solution, with 350 mM G2-β-CD): 12300 µg/mL (≈ 53000 µM)
- solubility at 72 h ([1]; 350 mM HP-β-CD aqueous solution, with 350 mM HP-β-CD): 6550 µg/mL (≈ 28200 µM)
- solubility at 72 h ([1]; 350 mM SBE-β-CD aqueous solution, with 350 mM SBE-β-CD): 13600 µg/mL (≈ 58400 µM)
- Frax solubility increase ([1]; with 8.82 mM G2-β-CD): 5.45 fold
- Frax solubility increase ([1]; with 8.82 mM HP-β-CD): 4.18 fold
- Frax solubility increase ([1]; with 8.82 mM SBE-β-CD): 7.61 fold
- Frax solubility increase ([1]; with 8.82 mM β-CD): 3.93 fold
- Frax solubility increase ([1]; with 350 mM G2-β-CD): 156.19 fold
- Frax solubility increase ([1]; with 350 mM HP-β-CD): 83.04 fold
- Frax solubility increase ([1]; with 350 mM SBE-β-CD): 171.91 fold
- MCHC (mean corpuscular hemoglobin concentration) ([3]; 5 mg/kg): 342.63 ± 10.38
- PDW (platelet distribution width) ([3]; 5 mg/kg): 14.84 ± 0.12
- PLT (platelet) ([3]; 5 mg/kg): 1188.13 ± 317.24
- WBC (white blood cell) ([3]; 5 mg/kg): 7.78 ± 3.91
- RBC (red blood cell) ([3]; 5 mg/kg): 9.21 ± 0.75
- HCT (haematocrit) ([3]; 5 mg/kg): 39.54 ± 2.28
- RDW-CV (red cell volume distribution width) ([3]; 5 mg/kg): 16.24 ± 1.32
- MCV (mean cell volume) ([3]; 5 mg/kg): 43.01 ± 2.17
- MPV (meanplateletvolume) ([3]; 5 mg/kg): 6.51 ± 0.32
- RDW-SD ([3]; 5 mg/kg): 29.88 ± 3.52
- HGB (hemoglobin) ([3]; 5 mg/kg): 135.50 ± 10.76
- MCH (mean corpuscular hemoglobin) ([3]; 5 mg/kg): 14.73 ± 0.49
- MCHC (mean corpuscular hemoglobin concentration) ([3]; 10 mg/kg): 344.43 ± 9.64
- PDW (platelet distribution width) ([3]; 10 mg/kg): 14.91 ± 0.12
- PLT (platelet) ([3]; 10 mg/kg): 1012.71 ± 281.88
- WBC (white blood cell) ([3]; 10 mg/kg): 6.46 ± 2.46
- RBC (red blood cell) ([3]; 10 mg/kg): 8.42 ± 0.32
- HCT (haematocrit) ([3]; 10 mg/kg): 37.15 ± 1.70
- RDW-CV (red cell volume distribution width) ([3]; 10 mg/kg): 16.22 ± 0.59
- MCV (mean cell volume) ([3]; 10 mg/kg): 43.80 ± 1.44
- MPV (meanplateletvolume) ([3]; 10 mg/kg): 6.63 ± 0.44
- RDW-SD ([3]; 10 mg/kg): 30.71 ± 1.70
- HGB (hemoglobin) ([3]; 10 mg/kg): 127.00 ± 5.10
- MCH (mean corpuscular hemoglobin) ([3]; 10 mg/kg): 15.09 ± 0.46
- MCHC (mean corpuscular hemoglobin concentration) ([3]; 20 mg/kg): 338.75 ± 3.58
- PDW (platelet distribution width) ([3]; 20 mg/kg): 14.86 ± 0.17
- PLT (platelet) ([3]; 20 mg/kg): 1190.00 ± 157.80
- WBC (white blood cell) ([3]; 20 mg/kg): 8.32 ± 3.90
- RBC (red blood cell) ([3]; 20 mg/kg): 9.07 ± 0.33
- HCT (haematocrit) ([3]; 20 mg/kg): 38.83 ± 1.69
- RDW-CV (red cell volume distribution width) ([3]; 20 mg/kg): 16.54 ± 0.79
- MCV (mean cell volume) ([3]; 20 mg/kg): 42.83 ± 1.54
- MPV (meanplateletvolume) ([3]; 20 mg/kg): 6.38 ± 0.23
- RDW-SD ([3]; 20 mg/kg): 30.13 ± 2.23
- HGB (hemoglobin) ([3]; 20 mg/kg): 131.50 ± 5.66
- MCH (mean corpuscular hemoglobin) ([3]; 20 mg/kg): 14.51 ± 0.46
- cumulative drug release [4]: < 20%
- logP at 24 h [6]: 3.2 ± 0.17
Structure (SMILES): CC1=C2C(=O)O[C@@H](c3ccoc3)[C@]2(C)CCC1 [Frax, Fraxinellone]
- cytotoxicity (in words) (Caco-2 cells): marked cell death
- intestinal permeability [2]: good intestinal permeability
- collagen in liver tissue (Masson, Sirius Red staining) [5, 7]: no obvious inhibition
- levels of liver fibrosis markers AST, ALT and HYP [5, 7]: no significant decrease
- effect on liver fibrosis ([5]; oral 20 mg/kg daily for 7 weeks): rather modest effect
